Test system: airway smooth muscle (ASM) tissues
Assay: Isometric constrictor responsiveness to acetylcholine in isolated rabbit tracheal ASM rings (organ bath)
Type: cell-based
Details: control (not cytokine-exposed) ASM, DEX 1 μM, 24 hours
Experimental: Following general anesthesia with xylazine (10 mg/kg) and ketamine 50 mg/kg), NZW rabbits were sacrificed by air embolism and the tracheae were removed, cleaned of loose connective tissue and epithelium, and divided into ring segments.
Following incubation, the ASM tissue segments were placed in organ baths containing modified Krebs Ringer solution, and aerated with 5% CO2 in oxygen at 37° C. The tissues' isometric cholinergic contractility was subsequently assessed by cumulative administration of acetylcholine (ACh; 10^−10 to 10^−3 M).

C[C@@H]1C[C@H]2[C@@H]3CCC4=CC(=O)C=C[C@]4(C)[C@@]3(F)[C@@H](O)C[C@]2(C)[C@@]1(O)C(=O)CO [DEX, dexamethasone]
effect on constrictor responses to ACh in control ASM: no effect
